Consider 2 compounds from US5759768A, “Assays for factors affecting circularization of DNA, assays for factors affecting DNA integration, factors, and uses thereof” (priority 1995, dated 1998).

Entries after “also recorded” stand apart in the source; their conditions may differ.

In test [1] the test system is preintegration complexes. The experiment in a line: Circularization mediated by partially purified preintegration complexes. It is filed as biochemical, HIV-1. The following applies: for circular DNA formed by preintegration complexes: 37° C., 45 min. The protocol: Viral preintegration complexes were partially purified from cytoplasmic extracts by Sephacryl S400 gel filtration chromatography. Cytoplasmic extracts (0.8 ml) were loaded onto a 22-ml Sephacryl S400 (Pharmacia) column, 28 cm in height, equilibrated in buffer K containing 0.5% Triton X-100 at 4° C. Fractions (0.5 ml) were collected at a flow rate of approximately 0.2 ml/min.
The linear viral DNA present in cytoplasmic extracts is a part of the nucleoprotein preintegration complex that can be separated from the bulk of cellular proteins by gel filtration chromatography [Farnet and Haseltine, J. Virol., 65: 1910-1915 (1991)]. Preintegration complexes were partially purified by Sephacryl S400 column chromatography and tested for the ability to mediate the circularization of viral DNA. Cytoplasmic extracts (1 ml, vol) were fractionated by Sephacryl S-400 gel filtration chromatography as previously described. The void volume fractions of the column, containing the peak of viral DNA, were pooled (total volume, 1.5 ml) and incubated as follows with the results shown in FIG. 20. Lane 1: column fractions were incubated at 37° C. for 45 minutes; lane 2: linear .phi.X174 DNA was added to column fractions to a final concentrations of 650 ng/ml and incubated at 37° C. for 45 minutes; lane 3: ATPγS was added to column fractions and incubated at 37° C. for 45 minutes; lane 4: same as lane 3, except that an equal volume of cytoplasmic extract from uninfected SupT1 cells was added prior to incubation; lane 5: ATP was added to column fractions to a final concentration of 1 mM and incubated at 37° C. for 45 minutes; lane 6: same as lane 5, except that an equal volume of cytoplasmic extract from uninfected SupT1 cells was added prior to incubation. […] Lane 1: products of the reaction shown in FIG. 20, lane 4, digested with SalI and PstI; lane 2: products of the reaction shown in FIG. 20, lane 5, digested with SalI and PstI; lane 3: products of the reaction shown in FIG. 20, lane 6, digested with SalI and PstI. […] The formation of all types of circular produts was dependent upon the addition of ATP, as viral DNA in column fractions remained linear during incubation at 37° C. in the absence of added ATP (FIG. 20, lane 1), regardless of the addition of uninfected SupT1 cell extracts.

The subject of test [2] is viral DNA (circularization versus integration into .phi.X174 target DNA). The experiment in a line: Circularization versus integration (competition) in cytoplasmic extracts from infected cells. The test is classed as biochemical, HIV-1. The protocol:
Circularization of the linear viral DNA present in cytoplasmic extracts was competitive with integration into heterologous DNA targets (FIG. 28). In FIG. 28, cytoplasmic extracts from infected cells were incubated at 37° C. as follows: Lane 1; incubation with 10 μg/ml .phi.X174 DNA for 45 minutes, lane 2, incubation with 1 mM ATP for 45 minutes; lane 3, incubation with […] .phi.X174 DNA and 1 mM ATP for 45 minutes; lane 4, incubation with 10 μg/ml .phi.X174 DNA for 45 minutes, followed by incubation with 1 mM ATP for 45 minutes; lane 5, incubation with 1 mM ATP for 45 minutes, followed by incubation with 10 μg/ml .phi.X174 DNA for 45 minutes; lane 6, incubation with nothing added for 45 minutes, followed by incubation with 10 μg/ml .phi.X174 DNA for 45 minutes. In FIG. 29, lanes 1-6, cytoplasmic extracts from infected cells were incubated at 37° C. for 45 minutes in the presence of 1 mM ATP and .phi.X174 DNA at a concentration of 0 μg/ml (lane 1), 0.3 μg/ml (lane 2), 0.8 μg/ml (lane 3), 1.6 μg/ml (lane 4), 3.2 μg/ml (lane 5), or 6.4 μg/ml (lane 6). Lane 7, extract incubated with 6.4 μg/ml .phi.X174 DNA for 45 minutes in the absence of added ATP. In FIG. 30, cytoplasmic extracts from infected cells were incubated at 37° C. for 60 minutes with nothing added (lane 1), with 6.4 μg/ml .phi.X174 DNA and 1 mM ATPγS (lane 2), or with 1 mM […] (lane 3). […]

With `Nc1ncnc2c1ncn2[C@@H]1O[C@H](COP(=O)(O)OP(=O)(O)OP(=O)(O)O)[C@@H](O)[C@H]1O` [ATP, adenosine triphosphate], the “1-LTR circle formation by preintegration complexes” value in test [1] (1 mM ATP, plus cytoplasmic extract from uninfected SupT1 cells) is “restored the ability to form 1-LTR circles”. The “2-LTR junction fragment from preintegration complexes” value in test [1] (1 mM ATP, plus uninfected SupT1 cell extract) is “a small amount of new 2-LTR junction fragment was also detected”. In addition, in test [1] (1 mM, column fractions), the “circular DNA formed by preintegration complexes” value is “formation of only the 2-LTR circular DNA form”. Also, the “circular or integrated product” value in test [2] (ATP (1 mM) and target DNA together, versus either alone, 45 min) is recorded as “the amount of circular or integrated product produced was reduced”. Moreover, in test [2] (preincubation with 1 mM ATP for 45 min prior to target DNA), the “integration of viral DNA into target DNA” value was “integration of viral DNA into target DNA was prevented; also recorded: unable to integrate during a subsequent incubation with target DNA”.

For `Nc1ncnc2c1ncn2[C@@H]1O[C@H](COP(=O)(O)OP(=O)(O)OP(O)(O)=S)[C@@H](O)[C@H]1O` [ATPγS], in test [1] (in presence and absence of uninfected cell extracts), the “circular DNA formed by preintegration complexes” value was “exclusive formation of autointegration 2-LTR circles”.
